Measurements published in US20240124444A1 (Celgene Corporation, priority 2020, published 2024).
Like-named read-outs stand apart in the source and are kept apart here.

Test system: C. parvum strain UGA1
Assay: C. parvum growth inhibition assay (Nluc luminescence in HCT-8 cells)
Assay type: cell-based, Cryptosporidium parvum
Conditions: for inhibition at 1 µM / inhibition at 10 µM: Cryptosporidium parvum, HCT-8; for inhibition at 1 µM: read-out: % inh @ 1 uM C. parvum; for inhibition at 10 µM: read-out: % inh @ 10 uM C. parvum
[1] = single point inhibition @ 10 uM
[2] = single point inhibition at 1 uM
[3] = single point inhibition at 10 uM

Row | SMILES | inhibition at 1 µM (single point inhibition @ 1 uM) [%] | inhibition at 10 µM [1] [%] | inhibition at 1 µM [2] [%] | inhibition at 10 µM [3] [%] | other results
1 | COc1nccc(-c2cc3cnc(NC(=O)c4cnn(C(C)C)c4)cc3[nH]2)n1 [Example 177, 1-isopropyl-N-(2-(2-methoxypyrimidin-4-yl)-1H-pyrrolo[3,2-c]pyridin-6-yl)-1H-pyrazole-4-carboxmaide] | 0 to 33 | 67 to 100 | – | – | –
2 | CC(C)n1cc(C(=O)Nc2cc3c(cn2)cc(-c2ccnc(NCCC(F)(F)F)n2)n3C)cn1 [Example 178, 1-isopropyl-N-(1-methyl-2-(2-(3,3,3-trifluoropropylamino)pyrimidin-4-yl)-1H-pyrrolo[3,2-c]pyridin-6-yl)-1H-pyrazole-4-carboxamide] | 0 to 33 | 67 to 100 | – | – | –
3 | N#Cc1cc2cnc(NC(=O)C3CC3)cc2[nH]1 [Example 180, N-(2-cyano-1H-pyrrolo[3,2-c]pyridin-6-yl)cyclopropanecarboxamide] | 0 to 33 | 67 to 100 | – | – | –
4 | CC(=O)Nc1cc2[nH]c(-c3ccncc3)cc2cn1 [Example 181, N-(2-(pyridin-4-yl)-1H-pyrrolo[3,2-c]pyridin-6-yl)acetamide] | 0 to 33 | 67 to 100 | – | – | –
5 | COc1nccc(-c2cc3cnc(NC(=O)c4cnn(C5CCCC5)c4)cc3[nH]2)n1 [Example 183, 1-cyclopentyl-N-(2-(2-methoxypyrimidin-4-yl)-1H-pyrrolo[3,2-c]pyridin-6-yl)-1H-pyrazole-4-carboxamide] | 0 to 33 | 67 to 100 | – | – | –
6 | Cc1nccc(-c2cc3cnc(NC(=O)c4cnn(C)c4)cc3[nH]2)n1 [Example 185, 1-methyl-N-(2-(2-methylpyrimidin-4-yl)-1H-pyrrolo[3,2-c]pyridin-6-yl)-1H-pyrazole-4-carboxamide] | 0 to 33 | 67 to 100 | – | – | –
7 | CC(C)n1cc(C(=O)Nc2cc3[nH]c(-c4ccnc(OCC(F)(F)F)n4)cc3cn2)cn1 [Example 186, 1-isopropyl-N-(2-(2-(2,2,2-trifluoroethoxy)pyrimidin-4-yl)-1H-pyrrolo[3,2-c]pyridin-6-yl)-1H-pyrazole-4-carboxamide] | 0 to 33 | 67 to 100 | – | – | –
8 | Cc1cc(-c2cc3cnc(NC(=O)[C@H]4C[C@H](O)C4)cc3[nH]2)ccn1 [Example 187, (1r,3r)-3-hydroxy-N-(2-(2-methylpyridin-4-yl)-1H-pyrrolo[3,2-c]pyridin-6-yl)cyclobutanecarboxamide] | 33 to 66 | 67 to 100 | – | – | –
9 | COc1nccc(-c2cc3cnc(NC(=O)c4ccc(OC5CCOCC5)cc4)cc3n2C)n1 [Example 188, N-(2-(2-methoxypyrimidin-4-yl)-1-methyl-1H-pyrrolo[3,2-c]pyridin-6-yl)-4-(tetrahydro-2H-pyran-4-yloxy)benzamide] | 0 to 33 | 67 to 100 | – | – | –
10 | c1ccc(Nc2cc3[nH]c(-c4cccnc4)cc3cn2)cc1 [Example 189, N-phenyl-2-(pyridin-3-yl)-1H-pyrrolo[3,2-c]pyridin-6-amine] | 0 to 33 | 67 to 100 | – | – | –
11 | CNC(=O)c1ccc(Nc2cc3[nH]c(-c4ccnc(C)c4)cc3cn2)cc1 [Example 190, N-methyl-4-(2-(2-methylpyridin-4-yl)-1H-pyrrolo[3,2-c]pyridin-6-ylamino)benzamide] | 0 to 33 | 67 to 100 | – | – | –
12 | CO[C@H]1C[C@@H](C(=O)Nc2cc3[nH]c(-c4ccnc(C)c4)cc3cn2)C1 [Example 191, (1s,3s)-3-methoxy-N-(2-(2-methylpyridin-4-yl)-1H-pyrrolo[3,2-c]pyridin-6-yl)cyclobutanecarboxamide] | 0 to 33 | 67 to 100 | – | – | –
13 | COCCn1cc(Nc2cc3[nH]c(-c4ccncc4)cc3cn2)cn1 [Example 192, N-(1-(2-methoxyethyl)-1H-pyrazol-4-yl)-2-(pyridin-4-yl)-1H-pyrrolo[3,2-c]pyridin-6-amine] | 33 to 66 | 67 to 100 | – | – | –
14 | CSc1ccc(Nc2cc3c(cn2)cc(-c2cnn(C)c2)n3C)cc1 [Example 193, 1-methyl-2-(1-methyl-1H-pyrazol-4-yl)-N-(4-(methylthio)phenyl)-1H-pyrrolo[3,2-c]pyridin-6-amine] | 0 to 33 | 67 to 100 | – | – | –
15 | Cc1cc(-c2cc3cnc(NC(=O)[C@H]4C[C@@H](O)C4)cc3[nH]2)ccn1 [Example 194, (1s,3s)-3-hydroxy-N-(2-(2-methypyridin-4-yl)-1H-pyrrolo[3,2-c]pyridin-6-yl)cyclobutanecarboxamide] | 0 to 33 | 67 to 100 | – | – | –
16 | Cn1ncc2ccc(Nc3cc4[nH]c(-c5ccncc5)cc4cn3)cc21 [Example 195, 1-methyl-N-(2-(pyridin-4-yl)-1H-pyrrolo[3,2-c]pyridin-6-yl)-1H-indazol-6-amine] | 67 to 100 | 67 to 100 | – | – | –
17 | COc1cccc(Nc2cc3[nH]c(-c4cnn(C)c4)cc3cn2)c1 [Example 197, N-(3-methoxyphenyl)-2-(1-methyl-1H-pyrazol-4-yl)-1H-pyrrolo[3,2-c]pyridin-6-amine] | 0 to 33 | 67 to 100 | – | – | –

Row | SMILES | inhibition at 1 µM (single point inhibition @ 1 uM) [%] | inhibition at 10 µM [1] [%] | inhibition at 1 µM [2] [%] | inhibition at 10 µM [3] [%] | other results
18 | CC(=O)Nc1cc2[nH]c(-c3cccnc3)cc2cn1 [Example 198, N-(2-(pyridin-3-yl)-1H-pyrrolo[3,2-c]pyridin-6-yl)acetamide] | – | – | 0 to 33 | 67 to 100 | –
19 | O=C(Nc1cc2[nH]c(-c3ccnc(C(F)(F)F)n3)cc2cn1)C1C2CCCC21 (stereo not drawn) [Example 199, N-(2-(2-(trifluoromethyl)pyrimidin-4-yl)-1H-pyrrolo[3,2-c]pyridin-6-yl)bicyclo[3.1.0]hexane-6-carboxamide] | – | – | 0 to 33 | 67 to 100 | –
20 | Cn1cc(C(=O)Nc2cc3c(cn2)cc(-c2ccnc(C(F)(F)F)n2)n3C)cn1 [Example 200, 1-methyl-N-(1-methyl-2-(2-(trifluoromethyl)pyrimidin-4-yl)-1H-pyrrolo[3,2-c]pyridin-6-yl)-1H-pyrazole-4-carboxamide] | – | – | 33 to 66 | 67 to 100 | –
21 | O=C(Nc1cc2[nH]c(-c3nc[nH]n3)cc2cn1)C1CC1 [Example 201, N-(2-(1H-1,2,4-triazol-3-yl)-1H-pyrrolo[3,2-c]pyridin-6-yl)cyclopropanecarboxamide] | – | – | 0 to 33 | 67 to 100 | –
22 | Cc1cc(-c2cc3cnc(NC(=O)C4CC(C)(O)C4)cc3[nH]2)ccn1 (stereo not drawn) [Example 202, 3-hydroxy-3-methyl-N-(2-(2-methylpyridin-4-yl)-1H-pyrrolo[3,2-c]pyridin-6-yl)cyclobutanecarboxamide] | – | – | 0 to 33 | 67 to 100 | –
23 | COc1ccc(Nc2cc3c(cn2)cc(-c2cnn(C)c2)n3C)cc1 [Example 203, N-(4-methoxyphenyl)-1-methyl-2-(1-methyl-1H-pyrazol-4-yl)-1H-pyrrolo[3,2-c]pyridin-6-amine] | – | – | 0 to 33 | 67 to 100 | –
24 | COc1cccc(Nc2cc3[nH]c(-c4cncn4C)cc3cn2)c1 [Example 204, N-(3-methoxyphenyl)-2-(1-methyl-1H-imidazol-5-yl)-1H-pyrrolo[3,2-c]pyridin-6-amine] | – | – | 33 to 66 | 67 to 100 | –
25 | Cc1cc(-c2cc3cnc(NC(=O)c4cnn(C5CCC5)c4)cc3[nH]2)ccn1 [Example 205, 1-cyclobutyl-N-(2-(2-methylpyridin-4-yl)-1H-pyrrolo[3,2-c]pyridin-6-yl)-1H-pyrazole-4-carboxamide] | – | – | 0 to 33 | 67 to 100 | –
26 | COC1CCC(OC(=O)Nc2cc3[nH]c(-c4ccnc(C)c4)cc3cn2)CC1 (stereo not drawn) [Example 206, 4-methoxycyclohexyl 2-(2-methylpyridin-4-yl)-1H-pyrrolo[3,2-c]pyridin-6-ylcarbamate] | – | – | 0 to 33 | 67 to 100 | –
27 | O=C(CC1CCCC1)Nc1cc2[nH]c(-c3ccncc3)cc2cn1 [Example 207, 2-cyclopentyl-N-(2-(pyridin-4-yl)-1H-pyrrolo[3,2-c]pyridin-6-yl)acetamide] | – | – | 0 to 33 | 67 to 100 | –
28 | N#Cc1cc2cnc(Nc3cc(-c4nc[nH]n4)cc(C4CCOCC4)c3)cc2[nH]1 [Example 208, 6-(3-(tetrahydro-2H-pyran-4-yl)-5-(1H-1,2,4-triazol-3-yl)phenylamino)-1H-pyrrolo[3,2-c]pyridine-2-carbonitrile] | – | – | 0 to 33 | 67 to 100 | –
29 | Cc1cc(-c2cc3cnc(NC(=O)NC4CC4)cc3[nH]2)ccn1 [Example 209, 1-cyclopropyl-3-(2-(2-methylpyridin-4-yl)-1H-pyrrolo[3,2-c]pyridin-6-yl)urea] | – | – | 0 to 33 | 67 to 100 | –
30 | Cn1cc(-c2cc3cnc(NC(=O)C4CC4)cc3[nH]2)cn1 [Example 210, N-(2-(1-methyl-1H-pyrazol-4-yl)-1H-pyrrolo[3,2-c]pyridin-6-yl)cyclopropanecarboxamide] | – | – | 0 to 33 | 67 to 100 | –
31 | COc1nccc(-c2cc3cnc(NC(=O)C4C5CCCCC54)cc3n2C)n1 (stereo not drawn) [Example 211, N-(2-(2-methoxypyrimidin-4-yl)-1-methyl-1H-pyrrolo[3,2-c]pyridin-6-yl)bicyclo[4.1.0]heptane-7-carboxamide] | – | – | 0 to 33 | 67 to 100 | –
32 | Cc1cc(-c2cc3cnc(NC(=O)[C@H]4CCCO4)cc3[nH]2)ccn1 [Example 212, (R)-N-(2-(2-methylpyridin-4-yl)-1H-pyrrolo[3,2-c]pyridin-6-yl)tetrahyrdofuran-2-carboxamide] | – | – | – | – | % inh @ 1 uM C. parvum [2]: D (single point inhibition values of 0-33% (activity level D)); % inh @ 10 uM C. parvum [3]: F (between 67% and 100% (activity level F))
33 | Cn1cc(C(=O)Nc2cc3[nH]c(-c4ccnc(OCCC(F)(F)F)n4)cc3cn2)cn1 [Example 213, 1-methyl-N-(2-(2-(3,3,3-trifluoropropoxy)pyrimidin-4-yl)-1H-pyrrolo[3,2-c]pyridin-6-yl)-1H-pyrazole-4-carboxamide] | – | – | 0 to 33 | 67 to 100 | –
